Columns and labels:
[1] = tested on: healthy control (HC) BMMNC samples; assay: Viability (Annexin V/7AAD) assay, healthy control samples; assay type: cell-based, human
Protocol: Cryopreserved mononuclear cells (MNC from BM or leukapheresis samples) were thawed in a water bath at 37° C. and cell suspension transferred to a 50 mL tube. 20 mL of IMDM media (Sigma, 13390) supplemented with 20% FBS (JRH Biosciences), 50 U/mL DNase I (Sigma), 100 IU/mL penicillin (Sigma), 100 μg/mL streptomycin (Sigma) and 2 mM L-glutamine (Sigma) was added dropwise to the cells while the tube was being vortexed slowly (or mixed by hand). The cells were centrifuged at 400 g for 5 min, supernatant was discarded and the cells were washed once with 20 mL PBS. After the wash, the cells were resuspended in 25 mL IMDM (Sigma, 13390) supplemented with 20% FBS (JRH Biosciences), 100 IU/mL penicillin (Sigma), 100 μg/mL streptomycin (Sigma) and 2 mM L-glutamine (Sigma), and incubated overnight for recovery. The next morning, viability was determined by trypan blue exclusion and samples with viability lower than 85% underwent dead cell removal by density gradient centrifugation as follows: 15 mL of Lymphoprep (AXIS-Shield) was transferred to a 50 mL tube and the cell suspension (25 mL) carefully overlayed (so as not to disturb the interface mixing with the Lymphoprep). The tubes were centrifuged at 800 g for 20 min with acceleration set at 5 (half of the maximum) and no brake. MNC layer (formed in the interface between the media and the Lymphoprep) was transferred with a disposable Pasteur pipet into a 50 mL tube containing 20 mL PBS. […] Viability and cell density were determined by trypan blue exclusion and cells were plated for respective experiments as described in the Results section.
2×10^5 cells (200 μL) were harvested in 5 mL tubes and washed 3 times with PBS. […] Results were analysed with FCS Express 4 Flow Research Edition software (De Novo Software). […]

[2] = tested on: GPR56+ LSC containing population of AML samples; assay: LSC detection by flow cytometry (CD34, CD38, GPR56); assay type: cell-based, human
Protocol: 8×10^5 cells (800 μL) were harvested in 5 mL tubes and fixed with 1.6% formaldehyde for 10 min at room temperature. The samples were then washed once with PBS and once with PBS/1% BSA. The cell pellets were resuspended in 100 μL PBS/1% BSA containing 5 μL of anti-CD34-APC (BD Biosciences, clone 8G12, catalogue 340441, lot 6183704), 5 μL of anti-CD38-PECy7 (BD Biosciences, 335790, lot 3353807) and 5 μL of anti-GPR56-PE (Biolegend, 358204, lot B208353) and incubated at room temperature for 1 h in the dark. Finally, cells were washed twice with PBS and resuspended in 200 μL of PBS for analysis on an LSRFortessa (BD Biosciences) flow cytometer. Results were analysed with FCS Express 4 Flow Research Edition software (De Novo Software).
LSC analysis. AML BMMNC samples were first gated for viable cells and then the fraction of GPR56+ cells was determined. According to the report by Pabst and collaborators (Pabst et al, Blood 2016), in CD34^high AML samples the GPR56+ population containing LSCs is present within the CD34+ cells, while in CD34^low AML samples the GPR56+ population containing LSCs is present in both CD34+ and CD34− cell populations. Therefore, the LSC containing subpopulation was estimated from the CD34+/GPR56+ gate for AML235, and from the GPR56+/CD34+ and GPR56+/CD34− gates in AML136 and AML480 (FIG. 6A). A decrease in these subpopulations in response to EX 1 would be consistent with the drug targeting the important LSC-containing compartment. […] On the other hand, OXi4503 treatment, when compared to vehicle control (DMSO), had little effect on AML136 and no effect on AML235 and AML480 (FIG. 6B).

Row | Structure (SMILES) | viability (live cells, Annexin V/7AAD) ([1]; 48 h) | viability (live cells, Annexin V/7AAD) ([1]; up to 72 h) | GPR56+ LSC containing cell population ([2]; AML136, AML235, AML480, 48 h) | concentration at which the LSC population is decreased (as low as) ([2]; AML samples, 48 h, FIG. 6C) | response to treatment (viability) [1] | effect on GPR56+ LSC containing population vs DMSO ([2]; AML136, 48 h) | effect on GPR56+ LSC containing population vs DMSO ([2]; AML235 and AML480, 48 h)
1 | COc1cc(C(=O)c2c(C)oc3c(O)c(OC)ccc23)cc(OC)c1OC [EX 1, 2-Methyl-7-hydroxy-3-(3,4,5-trimethoxybenzoyl)-6-methoxybenzofuran] | some reduced viability | viability remained stable | affected at different rates | 20 nM | – | – | –
2 | COc1cc(/C=C\c2ccc(OC)c(OP(=O)(O)O)c2OP(=O)(O)O)cc(OC)c1OC [OXi4503, reference compound] | – | – | – | – | did not show a response | little effect | no effect

From US11478445B2, “Method for treating acute myeloid leukemia” (Bionomics Limited, priority 2017, dated 2022)
